Holding throughout (experiment): Agar dilution MIC, in vitro antibacterial activity test
Common to all, as to format: cell-based
In general terms: Agar dilution tests growth on a series of plates holding different concentrations.

In one assay the test system is Escherichia coli O 55. Conditions: O55, 18 h. The procedure:
(§1) The antibacterial activity of each of sulbactam and the compounds I, II, III and IV was measured according to the agar dilution method using Mueller Hinton agar. The compounds to be tested were diluted twice in stages and then introduced into the agar plate. On this agar plate the selected bacterial strains were inoculated and then incubated at 37 °C for 18 hours. The agar plate was then visually observed to determine the minimum concentration, at which the growth of bacterial strains was not observed, which is then designated as the MIC value of the relevant antibiotic compound.
(§2) In the same manner, the MIC value of the compound I, II, III or IV in the presence of sulbactam was measured. In this case, the concentration of sulbactam in each agar plate should be constantly maintained at about 13µg/ml, which corresponds to approximately a quarter of the MIC value of sulbactam, to ensure that the decrease in MIC value of the compounds I - IV in the presence of sulbactam is not affected by the antibacterial activity of sulbactam itself. […] As a result of this experiment, the MIC values of each of four kinds of antibiotics, i.e. the compound I, II, III or IV used alone and in the presence of sulbactam were compared to each other and then the synergistic effect of the composition of the present invention was estimated.

Assay [1] relates to Pseudomonas aeruginosa 1771 M. The note with it: 18 h. The procedure:
as §1, §2

The subject of another assay is Escherichia coli TEM. Conditions: 18 h. The procedure: as §1, §2
The next assay relates to Escherichia coli DC 0. The note with it: DC0, 18 h. The procedure: as §1, §2
Assay [2] deals with Staphylococcus aureus 285. The note with it: Staphylococcus aureus, 285, 18 h. The procedure: as §1, §2
For a further assay, the system named is Escherichia coli DC 2. Conditions: DC2, 18 h. The procedure: as §1, §2
The subject of assay [3] is Staphylococcus aureus 503. The note with it: Staphylococcus aureus, 503, 18 h. The procedure:
as §1, §2

For another assay, the system named is Escherichia coli 1507 E. Conditions: 18 h. The procedure: as §1, §2
[4] abbreviates: alone, Mueller Hinton agar, 37°C, read-out: MIC value.
[5] abbreviates: in the presence of sulbactam(13μg/ml), Mueller Hinton agar, 37°C, read-out: MIC value.
Where [6] appears, read: read-out: MIC value, alone, Mueller Hinton agar, 37°C.
[7] abbreviates: read-out: MIC value, in the presence of sulbactam(13μg/ml), Mueller Hinton agar, 37°C.

Read-outs that look alike come from different tables or passages of the source.

Take `CC1(C)S[C@@H]2C(NC(=O)[C@H](N)c3ccc(O)cc3)C(=O)N2[C@H]1C(=O)O` (stereo partly drawn) [compound I, 6-[D(-)-α-amino-p-hydroxyphenylacetamido]penicillanic acid]: the MIC with Escherichia coli O 55 (setting [4]) was 1.56 µg/mL; in the assay with Escherichia coli O 55 (setting [5]) it was < 0.002 µg/mL; in assay [1] (setting [4]), 0.098 µg/mL; in assay [1] (setting [5]), 0.098 µg/mL; in the assay with Escherichia coli TEM (setting [6]), > 100 µg/mL; in the assay with Escherichia coli TEM (setting [7]), > 100 µg/mL. Also, the MIC was determined as 6.25 µg/mL in the assay on Escherichia coli DC 0 (setting [4]); 0.781 µg/mL in the assay with Escherichia coli DC 0 (setting [5]); 1.56 µg/mL in assay [2] (setting [4]); 0.195 µg/mL in assay [2] (setting [5]); 1.56 µg/mL in the assay on Escherichia coli DC 2 (setting [6]); 0.781 µg/mL in the assay with Escherichia coli DC 2 (setting [7]). In addition, the MIC in assay [3] (setting [4]) came to 1.56 µg/mL; in assay [3] (setting [5]), 0.098 µg/mL; in the assay with Escherichia coli 1507 E (setting [4]), 3.12 µg/mL; in the assay with Escherichia coli 1507 E (setting [5]), 0.391 µg/mL.
As to `C=N[C@@H](C(=O)NC1C(=O)N2[C@@H]1SC(C)(C)[C@@H]2C(=O)O)c1ccc(O)cc1` (stereo partly drawn) [compound II, 6-[D-2-(methyleneamino)-2-(4-hydroxyphenyl)acetamido]penicillanic acid], the MIC is 1.56 µg/mL in the assay with Escherichia coli O 55 (setting [4]); < 0.002 µg/mL in the assay on Escherichia coli O 55 (setting [5]); 0.195 µg/mL in assay [1] (setting [4]); 0.049 µg/mL in assay [1] (setting [5]); > 100 µg/mL with Escherichia coli TEM (setting [6]); > 100 µg/mL in the assay with Escherichia coli TEM (setting [7]). Besides, the MIC was 6.25 µg/mL in the assay with Escherichia coli DC 0 (setting [4]); 3.12 µg/mL in the assay on Escherichia coli DC 0 (setting [5]); 1.56 µg/mL in assay [2] (setting [4]); 0.195 µg/mL in assay [2] (setting [5]); 1.56 µg/mL in the assay on Escherichia coli DC 2 (setting [4]); 0.781 µg/mL in the assay on Escherichia coli DC 2 (setting [5]). Further, the MIC in assay [3] (setting [4]) was 1.56 µg/mL; in assay [3] (setting [5]) it was 0.098 µg/mL; in the assay on Escherichia coli 1507 E (setting [4]), 6.25 µg/mL; in the assay on Escherichia coli 1507 E (setting [5]), 0.098 µg/mL.
As for `CC1(C)[C@H](C(=O)O)N2C(=O)C[C@H]2S1(=O)=O` [sulbactam], the MIC is 100 µg/mL with Escherichia coli O 55 (setting [6]); 50 µg/mL in assay [1] (setting [6]); > 100 µg/mL with Escherichia coli TEM (setting [6]); > 100 µg/mL in the assay with Escherichia coli DC 0 (setting [6]); 100 µg/mL in assay [2] (setting [6]); 100 µg/mL in the assay on Escherichia coli DC 2 (setting [6]). Also, the values for the MIC (in assay [3] (setting [6]); with Escherichia coli 1507 E (setting [6])) were 100 µg/mL and > 100 µg/mL, respectively.
In the case of `CCN1CCN(C(=O)N[C@@H](C(=O)NC2C(=O)N3[C@@H]2SC(C)(C)[C@@H]3C(=O)O)c2ccc(O)cc2)C(=O)C1=O` (stereo partly drawn) [compound III, 6-[D-2-(4-ethyl-2,3-dioxopiperazinocarbonylamino)-2-(4-hydroxyphenyl)acetamido]penicillanic acid], the MIC in the assay on Escherichia coli O 55 (setting [4]) was 0.195 µg/mL; in the assay on Escherichia coli O 55 (setting [5]), < 0.002 µg/mL; in assay [1] (setting [4]) it was 0.098 µg/mL; in assay [1] (setting [5]), 0.025 µg/mL; in the assay on Escherichia coli TEM (setting [6]), > 100 µg/mL; with Escherichia coli TEM (setting [7]) it was 1.56 µg/mL. Further, the MIC was 0.195 µg/mL with Escherichia coli DC 0 (setting [5]); 1.56 µg/mL in the assay on Escherichia coli DC 0 (setting [6]); 3.12 µg/mL in assay [2] (setting [4]); 0.781 µg/mL in assay [2] (setting [5]); 0.098 µg/mL with Escherichia coli DC 2 (setting [4]); 0.025 µg/mL in the assay with Escherichia coli DC 2 (setting [5]). Further, the MIC was determined as 6.25 µg/mL in assay [3] (setting [4]), 0.391 µg/mL in assay [3] (setting [5]), 0.781 µg/mL with Escherichia coli 1507 E (setting [4]) and 0.098 µg/mL in the assay with Escherichia coli 1507 E (setting [5]).
Take `CNC(=O)C[C@@H](N)C(=O)N[C@@H](C(=O)N[C@@H]1C(=O)N2[C@@H]1SC(C)(C)[C@@H]2C(=O)O)c1ccc(O)cc1` [compound IV, 6-[D-2-(D-2-amino-3-N-methylcarbamoyl-propionamido)-2-p-hydroxyphenylacetamido]penicillanic acid]: the MIC with Escherichia coli O 55 (setting [6]) is 0.781 µg/mL; with Escherichia coli O 55 (setting [7]) it was < 0.002 µg/mL; in assay [1] (setting [6]) it was 0.391 µg/mL; in assay [1] (setting [7]), 0.025 µg/mL; in the assay on Escherichia coli TEM (setting [6]) it was > 100 µg/mL; in the assay on Escherichia coli TEM (setting [7]), 25 µg/mL. The MIC in the assay with Escherichia coli DC 0 (setting [6]) was 3.12 µg/mL; in the assay with Escherichia coli DC 0 (setting [7]) it was 0.781 µg/mL; in assay [2] (setting [6]), 6.25 µg/mL; in assay [2] (setting [7]), 1.56 µg/mL; with Escherichia coli DC 2 (setting [6]), 0.781 µg/mL; in the assay with Escherichia coli DC 2 (setting [7]), 0.195 µg/mL. Besides, the MIC came out at 6.25 µg/mL in assay [3] (setting [6]), 1.56 µg/mL in assay [3] (setting [7]), 3.12 µg/mL with Escherichia coli 1507 E (setting [6]) and 0.098 µg/mL in the assay on Escherichia coli 1507 E (setting [7]).

Values taken from patent EP0606506A1, “Beta-lactamase resistant antibacterial composition” (Kim, Yeong Sul, priority 1993, dated 1994).
